The results in this text go back to ChEMBL document CHEMBL1201862, “PubChem BioAssay data set” (2004).

Calls of active or inactive are those of the source. Cut-off read from the data, not from the text of the source, for most assays here: actives have a measured EC50 and inactives only a lower limit.

The target of assay [1] is Protein-tyrosine kinase 2-beta (Homo sapiens, UniProt Q14289).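 Note: potency of inhibitors of PYK2 kinase phosphorylation of poly-GT substrate.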
The target in assay [2] is Serine/threonine-protein phosphatase PP1-alpha catalytic subunit (Homo sapiens, UniProt P62136). The assay is described as follows: PP1 phosphatase inhibitors, dose response, biochemical, fluorescence (AID 2394).
A short description of assay [3]: inhibitors of intracellular T. cruzi replication, confirmation, NIH3T3 host cells, beta-gal luminescence (AID 2044).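 Note: intracellular parasites grown in NIH/3T3 mouse fibroblasts as host cells; luminescent beta-galactosidase reporter signal from transgenic T. cruzi replicating inside host cells; inhibitors lower the luminescence signal.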 Format: functional, cell-based.
A further assay deals with INS1. As to the kind of experiment: beta cell apoptosis inhibitors, cytokine rescue, dose response, luminescence, retest (AID 449756).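 Note: cell death triggered by IL-1 beta plus TNF-alpha plus IFN-gamma mixture; protective hits raise ATP signal compared with cytokine alone wells.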 Format: functional, cell-based. Particulars: Rattus norvegicus.
The target of a further assay is T1, Streptokinase A (Streptococcus pyogenes serotype M1, UniProt P10520).
T1 sequence (P10520 whole entry): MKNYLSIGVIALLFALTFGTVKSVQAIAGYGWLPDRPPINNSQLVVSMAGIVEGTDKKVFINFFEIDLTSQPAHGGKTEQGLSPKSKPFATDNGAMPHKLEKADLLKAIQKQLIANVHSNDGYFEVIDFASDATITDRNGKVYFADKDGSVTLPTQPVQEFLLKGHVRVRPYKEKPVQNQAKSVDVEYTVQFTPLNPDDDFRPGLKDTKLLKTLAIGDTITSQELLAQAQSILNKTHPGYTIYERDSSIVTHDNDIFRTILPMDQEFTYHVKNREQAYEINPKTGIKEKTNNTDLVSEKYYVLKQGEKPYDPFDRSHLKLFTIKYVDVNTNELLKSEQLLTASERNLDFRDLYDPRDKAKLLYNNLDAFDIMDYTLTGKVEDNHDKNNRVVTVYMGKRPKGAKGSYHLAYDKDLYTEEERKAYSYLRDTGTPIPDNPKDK
As to the kind of experiment: S. pyogenes streptokinase expression inhibitors, potency, dose response, plasminogen activation absorbance, OD405 (AID 1914).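 Note: secreted streptokinase activity via plasminogen activation per viability signal from cell pellet.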 Format: functional, Streptococcus pyogenes M1 GAS.

The subject of assay [4] is Streptococcus sp. 'group A'. The assay is described as follows: growth inhibition of control SK(-) GAS strain, dose response, counter-screen for streptokinase expression inhibitor project, luminescence, kanamycin, BacTiterGlo, confirmation (AID 1900). Format: functional, organism-based. For orientation: The purpose of a counterscreen is to sort out artefacts and off-target activity.

Assay [5] concerns the target Serine/threonine-protein phosphatase (Homo sapiens, UniProt Q9BPW0). As to the kind of experiment: PP5 phosphatase inhibitors, dose response, biochemical, fluorescence (AID 2395).
The subject of another assay is Streptococcus. As to the kind of experiment: Group A Streptococcus viability loss, dose response, counter-screen for streptokinase expression inhibitor project, luminescence, BacTiterGlo (AID 1915).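 Note: potency for reduction of bacterial viability or growth.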 In kind it is functional, organism-based.
A short description of assay [6]: cytotoxicity toward NIH3T3 fibroblasts, dose response, counter-screen, cell-based, ATP luminescence, mouse fibroblasts (AID 2010).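 Note: cells exposed to compound for about 90 hours before reading.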 In kind it is functional.
Assay [7] can be described thus: enhancers of respiration in Yfh1-depleted yeast, dose response, Friedreich's ataxia, plus single-dose screen (AID 1465).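 Note: yeast depleted of Yfh1p frataxin homolog grown on glycerol needing respiration; WST-1 tetrazolium dye reduction as measure of cellular dehydrogenase metabolic activity.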 In kind it is functional.
In assay [8] the target is T2, Apoptotic protease-activating factor 1 (Homo sapiens, UniProt O14727).
T2 sequence (O14727 whole entry): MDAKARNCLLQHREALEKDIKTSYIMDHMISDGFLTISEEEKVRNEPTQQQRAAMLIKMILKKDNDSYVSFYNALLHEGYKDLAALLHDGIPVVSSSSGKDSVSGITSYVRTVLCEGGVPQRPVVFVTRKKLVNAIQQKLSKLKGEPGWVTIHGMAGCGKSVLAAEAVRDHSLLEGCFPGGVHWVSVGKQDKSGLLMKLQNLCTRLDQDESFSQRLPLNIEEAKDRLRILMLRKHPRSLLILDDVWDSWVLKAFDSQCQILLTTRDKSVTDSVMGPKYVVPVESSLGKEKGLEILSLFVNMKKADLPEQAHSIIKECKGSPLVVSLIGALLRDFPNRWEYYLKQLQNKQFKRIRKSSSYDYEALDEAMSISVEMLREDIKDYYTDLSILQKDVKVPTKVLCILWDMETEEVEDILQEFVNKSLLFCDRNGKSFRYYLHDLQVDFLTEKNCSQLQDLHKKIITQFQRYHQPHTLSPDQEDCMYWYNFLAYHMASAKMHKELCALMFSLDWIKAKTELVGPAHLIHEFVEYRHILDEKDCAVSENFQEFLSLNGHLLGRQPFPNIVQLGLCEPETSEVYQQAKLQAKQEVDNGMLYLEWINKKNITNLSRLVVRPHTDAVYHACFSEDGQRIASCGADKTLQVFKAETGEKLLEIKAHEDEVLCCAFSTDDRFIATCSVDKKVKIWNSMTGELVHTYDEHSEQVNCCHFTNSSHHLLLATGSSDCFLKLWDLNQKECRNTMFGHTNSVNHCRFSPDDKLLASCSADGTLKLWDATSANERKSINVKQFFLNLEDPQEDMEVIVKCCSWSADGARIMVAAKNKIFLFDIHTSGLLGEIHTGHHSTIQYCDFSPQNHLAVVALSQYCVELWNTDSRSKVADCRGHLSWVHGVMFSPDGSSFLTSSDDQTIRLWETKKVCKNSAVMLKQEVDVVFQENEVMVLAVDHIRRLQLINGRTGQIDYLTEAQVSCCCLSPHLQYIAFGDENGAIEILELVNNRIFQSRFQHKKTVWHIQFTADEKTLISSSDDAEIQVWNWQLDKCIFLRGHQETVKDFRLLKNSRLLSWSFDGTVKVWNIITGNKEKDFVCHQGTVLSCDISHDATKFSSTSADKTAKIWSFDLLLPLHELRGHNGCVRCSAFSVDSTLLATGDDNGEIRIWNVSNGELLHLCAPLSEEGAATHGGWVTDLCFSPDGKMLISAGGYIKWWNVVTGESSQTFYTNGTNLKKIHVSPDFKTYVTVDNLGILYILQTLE
Format: functional.

The nature of assay [9]: M. tuberculosis H37Rv growth inhibitors, H37Rv strain (AID 1626). Format: functional.
The next assay concerns the target NADPH oxidase 1 (Homo sapiens, UniProt Q9Y5S8). In kind it is functional, cell-based.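 Note: Cell-based assay with luminescence read-out, IC50 derived from inhibitor dose-response curves; intracellular ROS from endogenous NOX1 in intact HT29 colon cancer cells; potency of inhibitors that lower the ROS luminescence signal.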
The test system of assay [10] is BJ. The assay is described as follows: cells. Format: functional, cell-based. Particulars: Homo sapiens.
A short description of assay [11]: inhibitors of SNCA 5'UTR-driven reporter translation, confirmation, H4 neuroglioma cells, luminescence (AID 1988). Format: functional, cell-based.
Assay [12] can be described thus: Luminescence Cell-Based Dose Response HTS to Identify Inhibitors of 5'UTR Stem-Loop Driven Prion Protein mRNA Translation in H4 Neuroglioblastoma Cells. [Related pubchem assays: 1827 (Project Summary), 1813 (Primary HTS)]. Format: functional.
In assay [13] the test system is BJ. The assay is described as follows: cytotoxicity toward BJ-TERT fibroblasts, dose response, cell-based, RAS-independent, luminescence (AID 1933). Particulars: Homo sapiens. Format: functional.
The next assay relates to HeLa. The assay is described as follows: Cytotoxicity counterscreen assay for transcriptional activators of heat shock protein 70 (Hsp70). [Related pubchem assays: 1203, 1252 ]. As to conditions: Homo sapiens. Format: functional.
The subject of assay [14] is BJ. The assay is described as follows: cytotoxicity toward BJ-TERT-LT-ST fibroblasts, dose response, cell-based, RAS-independent, luminescence (AID 1935).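 Note: BJ fibroblasts immortalized with TERT plus LT and ST oncogenes.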 Format: functional. Particulars: Homo sapiens.
The target of assay [15] is G-protein coupled receptor 55 (Homo sapiens, UniProt Q9Y2T6). As to the kind of experiment: GPR55 antagonists blocking LPI-driven arrestin recruitment, primary screen, imaging, U2OS, beta-arrestin-GFP, LPI agonist (AID 2013).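 Note: antagonist potency measured as reduced agonist-driven arrestin aggregation.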 Format: functional. On the technique in general: Arrestin recruitment assays detect the binding of arrestin to an activated receptor.
Assay [16] is described as follows: cytotoxicity toward DRD oncogenic fibroblasts, dose response, cell-based, non-viral oncogenic, luminescence (AID 1934). As to conditions: Homo sapiens. Format: functional.
The nature of assay [17]: inhibitors of firefly luciferase expression or activity, dose response, H4 neuroglioma cells, luminescence (AID 1990). Format: functional, cell-based.
The test system of assay [18] is BJ. The assay is described as follows: cytotoxicity toward Ras-transformed BJeLR fibroblasts, dose response, cell-based, alamar blue fluorescence, cherrypicked samples (AID 2631).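 Note: confirmatory dose-response assay in RAS-dependent BJ fibroblasts engineered with TERT, LT and ST, with cytotoxicity read by fluorescence.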 In kind it is functional. Particulars: Homo sapiens.
The target of assay [19] is Heat shock protein HSP 90-alpha (Homo sapiens, UniProt P07900). In kind it is functional, organism-based.
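Throughout, for CC50: cells exposed to compound for 16 hours before readout.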

Sequence of Serine/threonine-protein phosphatase (Q9BPW0 whole entry): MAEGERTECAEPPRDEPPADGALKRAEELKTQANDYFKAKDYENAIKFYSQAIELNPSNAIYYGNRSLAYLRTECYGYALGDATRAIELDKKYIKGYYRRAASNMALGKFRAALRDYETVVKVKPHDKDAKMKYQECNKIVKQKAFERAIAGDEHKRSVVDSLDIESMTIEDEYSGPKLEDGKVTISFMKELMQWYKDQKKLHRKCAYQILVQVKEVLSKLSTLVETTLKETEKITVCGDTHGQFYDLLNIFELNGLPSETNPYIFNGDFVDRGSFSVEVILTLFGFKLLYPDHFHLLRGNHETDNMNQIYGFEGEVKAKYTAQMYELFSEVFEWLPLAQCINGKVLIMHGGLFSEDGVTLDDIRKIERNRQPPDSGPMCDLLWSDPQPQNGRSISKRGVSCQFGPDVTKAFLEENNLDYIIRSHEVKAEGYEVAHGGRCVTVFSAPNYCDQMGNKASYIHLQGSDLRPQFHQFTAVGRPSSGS
Sequence of NADPH oxidase 1 (Q9Y5S8 whole entry): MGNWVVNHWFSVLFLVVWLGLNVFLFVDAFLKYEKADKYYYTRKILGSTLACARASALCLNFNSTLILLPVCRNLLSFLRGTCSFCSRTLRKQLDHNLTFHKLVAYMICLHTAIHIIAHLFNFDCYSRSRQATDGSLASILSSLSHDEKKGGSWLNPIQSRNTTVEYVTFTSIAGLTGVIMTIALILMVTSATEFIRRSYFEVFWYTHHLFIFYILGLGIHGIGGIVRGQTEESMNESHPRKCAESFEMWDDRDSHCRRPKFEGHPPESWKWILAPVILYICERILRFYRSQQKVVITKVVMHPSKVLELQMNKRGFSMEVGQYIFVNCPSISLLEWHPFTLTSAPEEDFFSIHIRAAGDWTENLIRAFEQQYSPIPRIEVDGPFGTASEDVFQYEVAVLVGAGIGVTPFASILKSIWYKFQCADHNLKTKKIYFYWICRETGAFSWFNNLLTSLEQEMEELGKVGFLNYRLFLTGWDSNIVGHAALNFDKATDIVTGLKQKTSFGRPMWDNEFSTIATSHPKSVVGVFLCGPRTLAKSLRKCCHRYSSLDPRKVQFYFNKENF
Sequence of G-protein coupled receptor 55 (Q9Y2T6 whole entry): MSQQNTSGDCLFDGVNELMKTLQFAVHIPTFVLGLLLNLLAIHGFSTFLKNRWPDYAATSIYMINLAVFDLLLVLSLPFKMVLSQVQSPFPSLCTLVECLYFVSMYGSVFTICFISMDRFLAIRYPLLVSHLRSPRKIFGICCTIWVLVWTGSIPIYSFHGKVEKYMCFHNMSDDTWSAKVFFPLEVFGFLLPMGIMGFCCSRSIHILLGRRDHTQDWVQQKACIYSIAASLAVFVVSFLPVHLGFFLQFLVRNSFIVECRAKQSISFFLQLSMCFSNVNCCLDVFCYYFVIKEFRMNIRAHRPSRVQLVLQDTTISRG
Sequence of Serine/threonine-protein phosphatase PP1-alpha catalytic subunit (P62136 whole entry): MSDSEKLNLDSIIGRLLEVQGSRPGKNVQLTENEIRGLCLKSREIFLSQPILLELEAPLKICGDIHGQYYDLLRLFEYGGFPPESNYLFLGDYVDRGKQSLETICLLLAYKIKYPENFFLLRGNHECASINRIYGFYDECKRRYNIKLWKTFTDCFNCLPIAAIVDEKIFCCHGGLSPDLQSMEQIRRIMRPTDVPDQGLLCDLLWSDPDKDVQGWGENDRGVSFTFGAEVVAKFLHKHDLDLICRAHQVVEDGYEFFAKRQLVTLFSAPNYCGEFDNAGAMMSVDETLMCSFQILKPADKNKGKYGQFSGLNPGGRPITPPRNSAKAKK
Sequence of Protein-tyrosine kinase 2-beta (Q14289 whole entry): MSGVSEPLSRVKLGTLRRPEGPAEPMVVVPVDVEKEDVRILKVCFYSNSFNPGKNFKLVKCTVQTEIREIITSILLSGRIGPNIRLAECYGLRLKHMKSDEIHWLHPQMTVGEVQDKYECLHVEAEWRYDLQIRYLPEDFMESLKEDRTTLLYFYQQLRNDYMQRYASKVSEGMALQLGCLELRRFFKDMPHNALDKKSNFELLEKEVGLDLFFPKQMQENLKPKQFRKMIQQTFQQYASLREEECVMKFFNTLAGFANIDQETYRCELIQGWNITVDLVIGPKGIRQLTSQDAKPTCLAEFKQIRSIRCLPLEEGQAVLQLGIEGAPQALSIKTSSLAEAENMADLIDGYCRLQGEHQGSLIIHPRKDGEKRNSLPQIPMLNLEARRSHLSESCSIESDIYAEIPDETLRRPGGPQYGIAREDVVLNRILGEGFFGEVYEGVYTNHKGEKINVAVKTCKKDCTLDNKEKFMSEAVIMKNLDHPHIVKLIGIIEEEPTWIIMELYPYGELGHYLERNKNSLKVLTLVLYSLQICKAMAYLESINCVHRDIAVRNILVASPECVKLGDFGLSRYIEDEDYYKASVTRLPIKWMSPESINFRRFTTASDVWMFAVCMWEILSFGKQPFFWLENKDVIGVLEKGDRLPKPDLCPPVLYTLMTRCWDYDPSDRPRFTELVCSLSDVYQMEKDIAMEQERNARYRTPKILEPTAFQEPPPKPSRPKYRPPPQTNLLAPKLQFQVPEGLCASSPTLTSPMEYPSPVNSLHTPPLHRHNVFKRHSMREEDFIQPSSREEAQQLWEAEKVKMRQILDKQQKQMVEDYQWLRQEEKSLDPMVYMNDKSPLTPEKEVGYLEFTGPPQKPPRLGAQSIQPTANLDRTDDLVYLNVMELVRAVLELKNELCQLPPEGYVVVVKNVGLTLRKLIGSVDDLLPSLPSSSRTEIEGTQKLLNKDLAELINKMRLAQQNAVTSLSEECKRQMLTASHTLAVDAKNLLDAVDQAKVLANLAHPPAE

One may read the IC50 as the midpoint of a concentration-inhibition curve. Broadly, the EC50 is the concentration giving half of the maximal effect. The term AC50 denotes the concentration at which the activity in the assay is half-maximal. With `Cc1ccc(Cl)cc1NC1=C/C(=N\S(=O)(=O)c2cccs2)c2ccccc2C1=O`, the IC50 is > 69.5 µM (not active) in assay [1], 38.9 µM (not active) in assay [2], 2.49 µM (active) in [5] and 1.85 µM (active) in [8]. The EC50 was 1.6 µM (active) in assay [3]; > 150 µM (not active) on Streptokinase A; 0.427 µM (active) in assay [4]; 2.98 µM (active) in the assay with Streptococcus; 3.19 µM (active) in [6]; > 100 µM (active) in assay [7]. Also, the AC50 in the assay with INS1 was 0.608 µM (active).

Consider `O=C(Oc1ccc2ccc(O)cc2c1)C1CCCCC1`, for which the IC50 in assay [9] is > 100 µM (active).

As to `O=C(Oc1ccccc1[N+](=O)[O-])c1sc2ccccc2c1Cl`, on NADPH oxidase 1, the IC50 is reported as > 17 µM (not active).

By CC50 is commonly meant the concentration giving 50% cytotoxicity. `CCOC(=O)/C(=C\c1cccnc1)C(=O)c1cc(C(C)=O)c(Nc2ccccc2)s1`: the concentration for a half-maximal effect (EC50) in the assay on BJ [10] is 7.78 µM (inconclusive); in assay [11], 8.02 µM (active); in assay [12], 8.03 µM (active); in the assay with BJ [13], 2.38 µM (inconclusive); in the assay on BJ [14], 6.68 µM (inconclusive); in [16] it was 2.34 µM (active). Besides, the values for the 50% effective concentration (EC50) (in assay [17]; in the assay with BJ [18]) were > 120 µM (not active) and 0.503 µM (active), respectively. Moreover, the 50% cytotoxic concentration (CC50) in the assay on HeLa is 2.91 µM (active). In assay [15], the IC50 was 3.09 µM (active). In assay [19], the AC50 was 2.18 µM (active).
